The NIST ThermoML archive (doi:10.1021/je100089s)
Numbers after ± are expanded uncertainties.

Key:
[1] = Liquid, Vibrating tube method
[2] = xn = mol fraction of the nth substance listed; settings: Liquid, Vibrating tube method, x1 = 1

OCCO [1,2-ethanediol]
mass density ([1]; 278.15 K, 101 kPa): 1123.77 ± 0.33 kg/m3 | mass density ([1]; 278.15 K, 10000 kPa): 1127.65 ± 0.38 kg/m3 | mass density ([1]; 278.15 K, 25000 kPa): 1133.2 ± 0.47 kg/m3 | mass density ([1]; 278.15 K, 50000 kPa): 1141.71 ± 0.62 kg/m3 | mass density ([1]; 278.15 K, 75000 kPa): 1149.55 ± 0.78 kg/m3 | mass density ([1]; 278.15 K, 100000 kPa): 1157.24 ± 0.97 kg/m3 | mass density ([1]; 288.15 K, 10000 kPa): 1120.87 ± 0.37 kg/m3 | mass density ([1]; 288.15 K, 25000 kPa): 1126.51 ± 0.45 kg/m3 | mass density ([1]; 288.15 K, 50000 kPa): 1135.26 ± 0.6 kg/m3 | mass density ([1]; 288.15 K, 75000 kPa): 1143.65 ± 0.76 kg/m3 | mass density ([1]; 288.15 K, 100000 kPa): 1151.55 ± 0.94 kg/m3 | mass density ([1]; 298.15 K, 10000 kPa): 1113.97 ± 0.36 kg/m3 | mass density ([1]; 298.15 K, 25000 kPa): 1119.78 ± 0.44 kg/m3 | mass density ([1]; 298.15 K, 50000 kPa): 1128.78 ± 0.58 kg/m3 | mass density ([1]; 298.15 K, 75000 kPa): 1137.41 ± 0.74 kg/m3 | mass density ([1]; 298.15 K, 100000 kPa): 1145.51 ± 0.91 kg/m3 | mass density ([1]; 308.15 K, 10000 kPa): 1107.05 ± 0.36 kg/m3 | mass density ([1]; 308.15 K, 25000 kPa): 1112.97 ± 0.43 kg/m3 | mass density ([1]; 308.15 K, 50000 kPa): 1122.28 ± 0.56 kg/m3 | mass density ([1]; 308.15 K, 75000 kPa): 1131.41 ± 0.72 kg/m3 | mass density ([1]; 308.15 K, 100000 kPa): 1139.57 ± 0.88 kg/m3 | mass density ([1]; 323.15 K, 101 kPa): 1092.12 ± 0.3 kg/m3 | mass density ([1]; 323.15 K, 50000 kPa): 1112.75 ± 0.54 kg/m3 | mass density ([1]; 323.15 K, 75000 kPa): 1122.55 ± 0.68 kg/m3 | mass density ([1]; 323.15 K, 100000 kPa): 1130.66 ± 0.84 kg/m3

C[S+](C)[O-] [dimethyl sulfoxide]
mass density ([1]; 298.15 K, 101 kPa): 1095.36 ± 0.31 kg/m3 | mass density ([1]; 298.15 K, 10000 kPa): 1101.16 ± 0.35 kg/m3 | mass density ([1]; 298.15 K, 25000 kPa): 1109.51 ± 0.42 kg/m3 | mass density ([1]; 298.15 K, 50000 kPa): 1122.86 ± 0.57 kg/m3 | mass density ([1]; 308.15 K, 101 kPa): 1085.36 ± 0.3 kg/m3 | mass density ([1]; 308.15 K, 10000 kPa): 1091.6 ± 0.34 kg/m3 | mass density ([1]; 308.15 K, 25000 kPa): 1100.65 ± 0.41 kg/m3 | mass density ([1]; 308.15 K, 50000 kPa): 1115.13 ± 0.54 kg/m3 | mass density ([1]; 308.15 K, 75000 kPa): 1128.21 ± 0.7 kg/m3 | mass density ([1]; 308.15 K, 100000 kPa): 1136.76 ± 0.87 kg/m3 | mass density ([1]; 323.15 K, 101 kPa): 1070.28 ± 0.29 kg/m3 | mass density ([1]; 323.15 K, 10000 kPa): 1076.9 ± 0.32 kg/m3 | mass density ([1]; 323.15 K, 25000 kPa): 1086.87 ± 0.38 kg/m3 | mass density ([1]; 323.15 K, 50000 kPa): 1102.44 ± 0.51 kg/m3 | mass density ([1]; 323.15 K, 75000 kPa): 1115.12 ± 0.66 kg/m3 | mass density ([1]; 323.15 K, 100000 kPa): 1123.25 ± 0.81 kg/m3

C[S+](C)[O-] [dimethyl sulfoxide] + OCCO
mass density ([2]; 298.15 K, 101 kPa): 1095.36 ± 0.31 kg/m3 | mass density ([2]; 298.15 K, 10000 kPa): 1101.16 ± 0.35 kg/m3 | mass density ([2]; 298.15 K, 25000 kPa): 1109.51 ± 0.42 kg/m3 | mass density ([2]; 298.15 K, 50000 kPa): 1122.86 ± 0.57 kg/m3 | mass density ([2]; 308.15 K, 101 kPa): 1085.36 ± 0.3 kg/m3 | mass density ([2]; 308.15 K, 10000 kPa): 1091.6 ± 0.34 kg/m3 | mass density ([2]; 308.15 K, 25000 kPa): 1100.65 ± 0.41 kg/m3 | mass density ([2]; 308.15 K, 50000 kPa): 1115.13 ± 0.54 kg/m3 | mass density ([2]; 308.15 K, 75000 kPa): 1128.21 ± 0.7 kg/m3 | mass density ([2]; 308.15 K, 100000 kPa): 1136.76 ± 0.87 kg/m3 | mass density ([2]; 323.15 K, 101 kPa): 1070.28 ± 0.29 kg/m3 | mass density ([2]; 323.15 K, 10000 kPa): 1076.9 ± 0.32 kg/m3 | mass density ([2]; 323.15 K, 25000 kPa): 1086.87 ± 0.38 kg/m3 | mass density ([2]; 323.15 K, 50000 kPa): 1102.44 ± 0.51 kg/m3 | mass density ([2]; 323.15 K, 75000 kPa): 1115.12 ± 0.66 kg/m3 | mass density ([2]; 323.15 K, 100000 kPa): 1123.25 ± 0.81 kg/m3
